From patent US20230295197A1, “STAT5 and STAT6 Degraders and Uses Thereof” (REGENTS OF THE UNIVERSITY OF MICHICAN, priority 2022, published 2023) come the findings set out here.

Usually DC50 stands for the concentration at which degradation of the target reaches its halfway point.

Each structure is given as a SMILES string. Where two headings read alike, the source gives them in different places. *1 amine or outer side, *2 acyl side, *3 side chain or, on linkers, in order; H or OH if unused. Where a SMILES comes first, the peptide text is derived from it. [ ]: non-standard residue; d: D form. The star is where a group is joined. Benzothienyl2CO(5-CF2PO3H2) = O=C(c1cc2cc(C(F)(F)P(=O)(O)O)ccc2s1)*; βAla(N-(4-Br-phenyl)) = O=C(CCN(c1ccc(Br)cc1)[*:1])[*:2]; NHBn(4-(4-Me-thiazol-5-yl)) = Cc1ncsc1-c1ccc(CN*)cc1; NH(CH2)9CO = O=C(CCCCCCCCCN[*:1])[*:2]; Hyp = O=C(O)[C@@H]1C[C@@H](O)CN1; Tle = CC(C)(C)[C@H](N)C(=O)O

The experiment has as its target T1, STAT6 (Homo sapiens, UniProt P42226).
T1 construct: endogenous in cells; host or cells: MOLM-16, KU-812, SKNO1, MB231, L1236
T1 sequence (P42226 1-847): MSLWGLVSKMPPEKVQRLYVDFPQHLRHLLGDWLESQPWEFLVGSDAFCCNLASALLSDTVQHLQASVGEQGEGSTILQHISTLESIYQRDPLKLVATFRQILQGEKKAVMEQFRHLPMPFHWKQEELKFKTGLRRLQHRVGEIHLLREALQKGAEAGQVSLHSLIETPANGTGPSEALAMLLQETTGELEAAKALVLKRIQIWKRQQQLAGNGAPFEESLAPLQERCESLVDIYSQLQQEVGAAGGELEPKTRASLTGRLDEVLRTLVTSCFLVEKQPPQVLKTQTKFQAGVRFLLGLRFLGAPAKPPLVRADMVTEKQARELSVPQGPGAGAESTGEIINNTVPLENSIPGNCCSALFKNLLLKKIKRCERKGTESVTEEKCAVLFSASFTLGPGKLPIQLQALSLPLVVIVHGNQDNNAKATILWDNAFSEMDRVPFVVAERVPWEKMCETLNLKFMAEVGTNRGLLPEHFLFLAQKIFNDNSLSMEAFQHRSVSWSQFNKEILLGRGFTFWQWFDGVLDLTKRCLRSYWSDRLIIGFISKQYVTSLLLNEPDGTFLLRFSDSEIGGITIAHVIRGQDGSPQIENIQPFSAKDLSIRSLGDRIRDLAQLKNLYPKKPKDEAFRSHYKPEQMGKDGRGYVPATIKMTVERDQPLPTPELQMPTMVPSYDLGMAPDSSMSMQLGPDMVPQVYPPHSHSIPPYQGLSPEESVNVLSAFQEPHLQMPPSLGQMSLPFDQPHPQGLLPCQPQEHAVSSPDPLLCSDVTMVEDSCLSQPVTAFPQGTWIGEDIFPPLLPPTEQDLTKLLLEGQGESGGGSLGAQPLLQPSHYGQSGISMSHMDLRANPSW
Nature of the experiment: Immunoblotting (Western blot) analysis of STAT6 degradation efficiency of degraders in treated cells. It counts as cell-based. The method in brief:
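Treatment of cells with degraders at stated concentrations and exposure times comes first. Lysates are then equalised for total protein by BCA, and the proteins are separated, transferred and immunostained for STAT6 or STAT5 alongside GAPDH. Signal is quantified from infrared fluorescence.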

Setting [1] is: L1236 cells, read-out: DC50 S6 L1236.
Where [2] appears, read: MOLM-16 cells, class symbols, read-out: DC50 S6 MOLM-16.
[3] abbreviates: MB231 cells, read-out: DC50 S6 MB231.

With `Cc1ncsc1-c1ccc([C@H](C)NC(=O)[C@@H]2C[C@@H](O)CN2C(=O)[C@@H](NC(=O)CNC(=O)CC(=O)N2CCN(C(=O)[C@@H](NC(=O)c3cc4cc(C(F)(F)P(=O)(O)O)ccc4s3)C(C)(C)C)[C@H](C(=O)N3CCO[C@H](c4ccccc4)C3)C2)C(C)(C)C)cc1` [Compound 443, (difluoro(2-(((S)-1-((S)-4-(3-((2-(((S)-1-((2S,4R)-4-hydroxy-2-(((S)-1-(4-(4-methylthiazol-5-yl)phenyl)ethyl)carbamoyl)pyrrolidin-1-yl)-3,3-dimethyl-1-oxobutan-2-yl)amino)-2-oxoethyl)amino)-3-oxopropanoyl)-2-((R)-2-phenylmorpholine-4-carbonyl)piperazin-1-yl)-3,3-dimethyl-1-oxobutan-2-yl)carbamoyl)benzo[b]thiophen-5-yl)methyl)phosphonic acid], the DC50 reads like this: under setting [1], > 10 µM; under setting [2], > 10 µM.

For the compound `Cc1ncsc1-c1ccc([C@H](C)NC(=O)[C@@H]2C[C@@H](O)CN2C(=O)[C@@H](NC(=O)CCCCCCNC(=O)COc2ccc3c(c2)CN(C(=O)[C@@H](NC(=O)c2cc4cc(C(F)(F)P(=O)(O)O)ccc4s2)C(C)(C)C)[C@H](C(=O)N2CCO[C@H](c4ccccc4)C2)C3)C(C)(C)C)cc1` [Compound 466, (difluoro(2-(((S)-1-((S)-7-(2-((7-(((S)-1-((2S,4R)-4-hydroxy-2-(((S)-1-(4-(4-methylthiazol-5-yl)phenyl)ethyl)carbamoyl)pyrrolidin-1-yl)-3,3-dimethyl-1-oxobutan-2-yl)amino)-7-oxoheptyl)amino)-2-oxoethoxy)-3-((R)-2-phenylmorpholine-4-carbonyl)-3,4-dihydroisoquinolin-2(1H)-yl)-3,3-dimethyl-1-oxobutan-2-yl)carbamoyl)benzo[b]thiophen-5-yl)methyl)phosphonic acid], the DC50 under setting [1] was > 10 µM and the DC50 under setting [2] was > 10 µM.

For `CC(C)(C)[C@H](NC(=O)c1cc2cc(C(F)(F)P(=O)(O)O)ccc2s1)C(=O)N1C[C@@H](OCCCCCCCC#Cc2cccc3c2CN(C2CCC(=O)NC2=O)C3=O)C[C@H]1C(=O)N1CCO[C@H](c2ccccc2)C1` (stereo partly drawn) [Compound 595, ((2-(((2S)-1-((2S,4S)-4-((9-(2-(2,6-dioxopiperidin-3-yl)-1-oxoisoindolin-4-yl)non-8-yn-1-yl)oxy)-2-((R)-2-phenylmorpholine-4-carbonyl)pyrrolidin-1-yl)-3,3-dimethyl-1-oxobutan-2-yl)carbamoyl)benzo[b]thiophen-5-yl)difluoromethyl)phosphonic acid], under setting [2], the DC50 was < 0.1 µM.

In the case of `CC(C)(C)[C@H](NC(=O)c1cc2cc(C(F)(F)P(=O)(O)O)ccc2s1)C(=O)N1CCN(C(=O)CC(=O)NCCCCC#Cc2ccc3c(c2)C(=O)N(C2CCC(=O)NC2=O)C3=O)C[C@H]1C(=O)N1CCO[C@H](c2ccccc2)C1` (stereo partly drawn) [Compound 514, ((2-(((2S)-1-((2S)-4-(3-((6-(2-(2,6-dioxopiperidin-3-yl)-1,3-dioxoisoindolin-5-yl)hex-5-yn-1-yl)amino)-3-oxopropanoyl)-2-((R)-2-phenylmorpholine-4-carbonyl)piperazin-1-yl)-3,3-dimethyl-1-oxobutan-2-yl)carbamoyl)benzo[b]thiophen-5-yl)difluoromethyl)phosphonic acid], the DC50 under setting [2] was > 10 µM.

For the compound `CC(C)(C)[C@H](NC(=O)c1cc2cc(C(F)(F)P(=O)(O)O)ccc2s1)C(=O)N1Cc2cc(OCC(=O)NCCCCC#Cc3cccc4c3C(=O)N(C3CCC(=O)NC3=O)C4=O)ccc2C[C@H]1C(=O)N1CCO[C@H](c2ccccc2)C1` (stereo partly drawn) [Compound 541, ((2-(((2S)-1-((3S)-7-(2-((6-(2-(2,6-dioxopiperidin-3-yl)-1,3-dioxoisoindolin-4-yl)hex-5-yn-1-yl)amino)-2-oxoethoxy)-3-((R)-2-phenylmorpholine-4-carbonyl)-3,4-dihydroisoquinolin-2(1H)-yl)-3,3-dimethyl-1-oxobutan-2-yl)carbamoyl)benzo[b]thiophen-5-yl)difluoromethyl)phosphonic acid], the DC50 under setting [2] was > 10 µM.

For the compound `Cc1cc([C@H](C(=O)N2C[C@H](O)C[C@H]2C(=O)N[C@@H](CC(=O)NCCOCCOCCOCCNC(=O)CCN(C(=O)[C@@H]2CCCN2C(=O)[C@@H](NC(=O)c2cc3cc(C(F)(F)P(=O)(O)O)ccc3s2)C(C)(C)C)c2ccc(Br)cc2)c2ccc(-c3scnc3C)cc2)C(C)C)on1` [Compound 409, ((2-(((S)-1-((S)-2-((4-bromophenyl)((S)-1-((2S,4R)-4-hydroxy-1-((R)-3-methyl-2-(3-methylisoxazol-5-yl)butanoyl)pyrrolidin-2-yl)-3-(4-(4-methylthiazol-5-yl)phenyl)-1,5,19-trioxo-9,12,15-trioxa-2,6,18-triazahenicosan-21-yl)carbamoyl)pyrrolidin-1-yl)-3,3-dimethyl-1-oxobutan-2-yl)carbamoyl)benzo[b]thiophen-5-yl)difluoromethyl)phosphonic acid], the DC50 under setting [3] was > 10 µM.

Consider `CC(C)(C)[C@H](NC(=O)c1cc2cc(C(F)(F)P(=O)(O)O)ccc2s1)C(=O)N1CCC[C@H]1C(=O)N(CCC(=O)NCCCCCCCCCC#Cc1cccc2c1CN(C1CCC(=O)NC1=O)C2=O)c1ccc(Br)cc1` (stereo partly drawn) [Compound 402, ((2-(((2S)-1-((2S)-2-((4-bromophenyl)(3-((11-(2-(2,6-dioxopiperidin-3-yl)-1-oxoisoindolin-4-yl)undec-10-yn-1-yl)amino)-3-oxopropyl)carbamoyl)pyrrolidin-1-yl)-3,3-dimethyl-1-oxobutan-2-yl)carbamoyl)benzo[b]thiophen-5-yl)difluoromethyl)phosphonic acid], for which the DC50 under setting [3] is > 10 µM.

Regarding `CC(C)(C)[C@H](NC(=O)c1cc2cc(C(F)(F)P(=O)(O)O)ccc2s1)C(=O)N1C[C@H](OCCCCCC(=O)N2Cc3cc4c(cc3C2)C(=O)N(C2CCC(=O)NC2=O)C4)C[C@H]1C(=O)N1CCO[C@H](c2ccccc2)C1` (stereo partly drawn) [Compound 592, ((2-(((2S)-1-((2S,4R)-4-((6-(6-(2,6-dioxopiperidin-3-yl)-5-oxo-3,5,6,7-tetrahydropyrrolo[3,4-f]isoindol-2(1H)-yl)-6-oxohexyl)oxy)-2-((R)-2-phenylmorpholine-4-carbonyl)pyrrolidin-1-yl)-3,3-dimethyl-1-oxobutan-2-yl)carbamoyl)benzo[b]thiophen-5-yl)difluoromethyl)phosphonic acid], under setting [2], the half-maximal degradation concentration (DC50) is 1 to 10 µM.

For the compound `Cc1ncsc1-c1ccc([C@H](C)NC(=O)[C@@H]2C[C@@H](O)CN2C(=O)[C@H](NC(=O)CNC(=O)CO[C@H]2C[C@@H](C(=O)N3CCO[C@H](c4ccccc4)C3)N(C(=O)[C@@H](NC(=O)c3cc4cc(C(F)(F)P(=O)(O)O)ccc4s3)C(C)(C)C)C2)C(C)(C)C)cc1` [Compound 425, (difluoro(2-(((S)-1-((2S,4S)-4-(2-((2-(((R)-1-((2S,4R)-4-hydroxy-2-(((S)-1-(4-(4-methylthiazol-5-yl)phenyl)ethyl)carbamoyl)pyrrolidin-1-yl)-3,3-dimethyl-1-oxobutan-2-yl)amino)-2-oxoethyl)amino)-2-oxoethoxy)-2-((R)-2-phenylmorpholine-4-carbonyl)pyrrolidin-1-yl)-3,3-dimethyl-1-oxobutan-2-yl)carbamoyl)benzo[b]thiophen-5-yl)methyl)phosphonic acid], the DC50 under setting [1] was > 10 µM and the DC50 under setting [2] is > 10 µM.

`CC(C)(C)[C@H](NC(=O)c1cc2cc(C(F)(F)P(=O)(O)O)ccc2s1)C(=O)N1CCN(C(=O)CC(=O)NCCCCCCCCCC#Cc2ccc3c(c2)C(=O)N(C2CCC(=O)NC2=O)C3=O)C[C@H]1C(=O)N1CCC[C@H](c2ccccc2)C1` (stereo partly drawn) [Compound 534, ((2-(((2S)-1-((2S)-4-(3-((11-(2-(2,6-dioxopiperidin-3-yl)-1,3-dioxoisoindolin-5-yl)undec-10-yn-1-yl)amino)-3-oxopropanoyl)-2-((R)-3-phenylpiperidine-1-carbonyl)piperazin-1-yl)-3,3-dimethyl-1-oxobutan-2-yl)carbamoyl)benzo[b]thiophen-5-yl)difluoromethyl)phosphonic acid]: the DC50 under setting [2] was > 10 µM.

Take `Cc1ncsc1-c1ccc(CNC(=O)[C@@H]2C[C@@H](O)CN2C(=O)[C@@H](NC(=O)CCCCCCCCCNC(=O)CCN(C(=O)[C@@H]2CCCN2C(=O)[C@@H](NC(=O)c2cc3cc(C(F)(F)P(=O)(O)O)ccc3s2)C(C)(C)C)c2ccc(Br)cc2)C(C)(C)C)cc1` [Compound 396] ({Benzothienyl2CO(5-CF2PO3H2)}-[Tle]P[βAla(N-(4-Br-phenyl))][NH(CH2)9CO][Tle][Hyp]-{NHBn(4-(4-Me-thiazol-5-yl))}): where the note is “read-out: DC50 S6 MB231, MB231 cells”, the DC50 is > 10 µM.
